Laboratory results from patent US20100183745A1, “Electrochemical Device for Biocide Treatment in Agricultural Applications” (Industrie De Nora S.P.A., priority 2007, published 2010).

Test system: Erwinia amylovora
Test: SEM analysis of bacterial colonies on treated pear leaves
Type: in vivo, pear trees of white William variety
Conditions: leaves apparently not affected by the disease; copious bacterial colonies prior to treatment; once a day during 10 days
Description: The feed vessel was loaded with a solution at neutral pH containing 1 g/l of NaCl and 2.5 g/l of KCl, and the service vessel was loaded with a tap-water stream whose flow-rate was controlled by a downstream UV probe, calibrated so as to detect the concentration of outlet hypochlorous acid by adsorption at 292 nm adjusting the same at a value comprised between 0.10 and 0.15 g/l at sprinkling stage. The outflow of electrolysis cell to the service vessel was adjusted at a flow-rate of 20 l/h.
The device regulated in this way was used for sprinkling the leaves of 50 pear trees of white William variety affected with fire blight, a disease induced by Erwinia amylovora bacterium causing stems, leaves and flowers of the plant to turn brown in localised groups. […] Each treatment was repeated once a day, during 10 subsequent days.

For `O.O.O.O.O.O=S(=O)([O-])[O-].[Cu+2]` [cupric sulphate], the “bacterial colonies on leaves by SEM analysis after the treatment” value was “substantial reduction of the phenomenon, still showed the signs of traces of bacterial colonies”.
